Assays:
[1] = Inhibition of alpha-fucosidase
[2] = Inhibition of alpha-glucosidase
[3] = Inhibition of beta-glucosidase
[4] = Inhibition of alpha-mannosidase
[5] = Inhibition of alpha-galactosidase
[6] = Inhibition of beta-mannosidase
[7] = Inhibition of beta-galactosidase

Row | Compound | Ki ([1]; read-out: Ki) [µM] | Ki [2] | IC50 [3] [µM] | IC50 [5] [µM] | IC50 [4] [µM] | other results
1 | C[C@@H]1N[C@@H](CCO)[C@H](O)[C@@H]1O | 0.008 |  | > 1000 | > 1000 | > 1000 | IC50 [2]: > 100 µM; IC50 [6]: > 1000 µM; IC50 [7]: > 1000 µM
2 | OC[C@H]1NC[C@@H](O)[C@H]1O |  | Not Active | 350 | 0.2 | 14 | IC50 [7]: 140 µM; Ki [1]: Not Active
3 | C[C@@H]1NC[C@H](O)[C@@H]1O | 0.05 |  |  |  |  | 

Now from value to molecule, other results behind:

Row | Ki ([1]; read-out: Ki) [µM] | Ki [2] | IC50 [3] [µM] | IC50 [5] [µM] | IC50 [4] [µM] | Compound | other results
4 | 0.0049 |  |  |  |  | C[C@@H]1N[C@H](CO)[C@H](O)[C@@H]1O | 
5 | 1000 | Not Active | 100 | 2000 |  | C[C@H]1N[C@H](CO)[C@@H](O)[C@H]1O | Ki [4]: Not Active
6 | 0.08 |  |  |  |  | C[C@@H]1N[C@@H](CO)[C@H](O)[C@@H]1O | 
7 | 9 | Not Active | 1200 |  |  | C[C@H]1N[C@H](CO)[C@H](O)[C@@H]1O | Ki ([4]; read-out: Ki): 53 µM; Ki [5]: 5 µM
8 | 0.015 |  | > 1 |  | > 1000 | C[C@H]1N[C@@H](CO)[C@@H](O)[C@H]1O (racemic) | IC50 [2]: > 100 µM; IC50 [6]: > 1000 µM; Ki [5]: 3 µM; Ki [7]: 53 µM

Reference: ChEMBL document CHEMBL1287753, “Synthesis of all-cis 2,5-imino-2,5-dideoxy-fucitol and its evaluation as a potent fucosidase and galactosidase inhibitor” (Bioorg Med Chem Lett, 2010)
